Laboratory results reported in patent US20160074390A1, “HUMAN DOSING OF PHOSPHATASE INHIBITOR” (Lixte Biotechnology, Inc., priority 2014, published 2016).
Where “and” joins values, the source holds several entries; their conditions need not be identical. Identical values can stand only once. Like-named read-outs stand apart in the source and are kept apart here.

Assays:
[1] = tested on: HeLa cells, OS-17, MKN28, MKN45, MGC803, and SGC7901 cells; test: Growth of Mad2-overexpressing cell lines in vitro; format: cell-based, human; settings: all cell lines; present-tense example
Method: Compound LB-100 inhibits PP2A phosphatase in cancer cells which in turn induces Mad-2 phosphorylation while suppressing Mad-2 protein levels. In order to characterize the effects of LB-100 on cancers overexpressing Mad2, tumor cell lines carrying Mad2-overexpressing mutations are tested. LB-100 inhibits the growth of the cancer cells in in vitro assays. […] Exposure to LB-100 reduces the expression of Mad-2 in the cells.
Mad2-overexpressing HeLa cells (HeLa Mad-2 O/E), osteosarcoma human cells (OS-17) and gastric cell lines (MKN28, MKN45, MGC803, and SGC7901) express high levels of Mad2 (Yu, L. et al. 2010). LB-100 inhibits the growth of the HeLa cells, OS-17, MKN28, MKN45, MGC803, and SGC7901 cells in vitro. […] Exposure to LB-100 reduces the expression of Mad-2 in all cell lines.

TNBC cell lines = test: Cytotoxicity against TNBC cells; format: cell-based; settings: single agent; present-tense example
Method: LB-100 inhibits PP2A activity and is cytotoxic to TNBC cells. LB-100 synergizes with chemotherapeutic drugs to enhance cytotoxicity against TNBC cells. LB-100 also enhances the effects of chemotherapy in TNBC xenografts. LB-100 chemosensitizes doxorubicin and cisplatin to TNBC cells and/or has a synergistic cytotoxic effect with doxorubicin and/or cisplatin against TNBC cells.
Both doxorubicin (0.2 μg/ml) and cisplatin (2 μg/ml) in combination with LB-100 are cytotoxic to TNBC cell lines. The addition of LB-100 sensitizes TNBC cells to doxorubicin and cisplatin. TNBC cell lines include HCC1599, HCC1937, HCC1599, MDA-MB-468, HCC38, HCC70, HCC1806, HCC1187, DU4475, BT-549, Hs-578T, MDA-MB-231, MDA-MB-436, MDA-MB-157, MDA-MB-453, BT-20, and HCC1395.

[2] = Solubility and stability of LB-100 solution; format: physicochemical; settings: for stability of formulation: in monosodium glutamate, pH 10.5
Excerpt: LB-100 is a water soluble enantiomeric zwitterion provided as a sterile solution for intravenous administration. […] Phosphate buffered saline (PBS) was used as the vehicle for LB-100 administration in preclinical efficacy studies and sodium bicarbonate 4.2% for injection was used as the vehicle for GLP toxicity studies.

[3] = Toxicokinetics in GLP repeat-dose rat study; settings: Sprague Dawley, in vivo, iv, 0.75 mg/kg/day, study Day 4
Excerpt: These changes were reversible. […] Inflammation was often accompanied by mesothelial hypertrophy.

[4] = tested on: human glioblastoma cell line, U373; settings: simultaneous exposure, US 2010/0029683 A1; cited from earlier work
in vivo = settings: beagle, dog, 0.15 mg/kg
male Fischer rats = test: Non-GLP dose ranging toxicity study, daily IV infusion x4 days (NCI)
Method: (§1) In a non-GLP dose ranging study in male Fischer rats conducted by the NCI, LB-100 was administered by daily intravenous (IV) infusion at 0.5, 0.75 and 1.5 mg/kg/day for 4 consecutive days.

[5] = as above; settings: male, Fischer, rat, in vivo, iv
Method: as §1

[6] = tested on: male and female beagle dogs; test: GLP repeat dose toxicity study, IV daily x5 days
Method: In the GLP repeat dose dog study, LB-100 was administered by intravenous injection (slow bolus push) at dose levels of 0.15, 0.30, and 0.75 mg/kg daily for 5 consecutive days.
Multilead (I, II, III, aVR, aVL, aVF, and V2) ECGs were recorded for all animals prior to randomization (Day −8) and for all surviving animals on Day 4 (recorded approximately 2 to 4 hours following dose administration) and Day 27.
Blood pressure (systolic, diastolic, and mean arterial pressure) data were recorded for all animals once during the pretest period (Day −8) and for all surviving animals on study Day 4 (recorded approximately 2 to 4 hours following dose administration) and Day 27.

advanced solid tumors = test: Phase I Part 1 single agent LB-100: tumor response (RECIST 1.1); format: in vivo, human
Excerpt: Two dose regimens are explored.
Although response is not the primary endpoint of this study, patients with measurable disease will be assessed at baseline and during the study by standard criteria. Patients should be reevaluated after receiving 2 cycles of study therapy and then after every 2 cycles thereafter. In the event objective response (PR or CR) is noted, changes in tumor measurements must be confirmed by repeat assessments that should be performed at least 4 weeks after the criteria for response are first met.
Response and progression will be evaluated in this study using the international criteria (version 1.1) proposed by the Response Evaluation Criteria in Solid Tumors (RECIST) Committee [Eur J Cancer. 45 (2009) 228-247]. Changes in only the largest diameter (unidimensional measurement) of the tumor lesions are used in the RECIST 1.1 guidelines. Note: Lesions are either measurable or non-measurable using the criteria provided below.
• Complete Response (CR): Disappearance of all target lesions.
The patient's best overall response assignment will depend on findings of both target and non-target disease and will also take into consideration the appearance of new lesions. It is assumed that at each protocol-specified time point, a response assessment occurs. Table provides a summary of the overall response status calculation at each time point for patients who have measurable disease at baseline.
In the case of SD, follow-up measurements must have met the SD criteria at least once after study entry at a minimum interval at 5 weeks.

[7] = tested on: patients with advanced solid tumors; settings: in vivo
Method: This is a Phase I, open label, multicenter, two-part, dose-escalation study of LB-100 administered intravenously in patients with advanced solid tumors. Two dose regimens are explored. In the first regimen (Part 1), single agent LB-100 is given daily on Days 1 through 3 of every 21 day cycle. In the second regimen (Part 2), docetaxel-naïve patients are treated with LB-100 given daily on Days 1 through 3 in combination with a fixed dose of docetaxel (either 60 mg/m^2 or 75 mg/m^2) given on Day 2 of every 21 day cycle. Once the MTD of single agent LB-100 is reached, 3 additional patients are enrolled in an MTD confirmation cohort. Part 2 enrolls patients once the MTD of single agent LB-100 is determined in Part 1.
The starting dose of L8-100 for Part 1 is 0.25 mg/m^2. The starting dose of LB-100 for Part 2 is 2 dose levels below the MTD determined in Part 1, administered in combination with docetaxel 60 mg/m^2. Once the MTD of LB-100+docetaxel 60 mg/m^2 is determined, the dose of LB-100 is reduced 2 dose levels and administered in combination with docetaxel 75 mg/m^2. The dose of LB-100 is then be escalated to the full LB-100 dose (of the LB-100+docetaxel 60 mg/m^2 MTD) and administered in combination with docetaxel 75 mg/m^2. Once the MTD of the combination of LB-100+docetaxel (either 60 mg/m^2 or 75 mg/m^2) is reached, 3 additional patients are enrolled in an MTD/RD confirmation cohort.
LB-100 is administered in escalating dose levels. Enrollment in each dose cohort proceeds in the standard “3+3” schema. In each cohort, the first patient enrolled completes Cycle 1 treatment and safety monitoring prior to the enrollment of the second and third patients; the second and third patients may be enrolled simultaneously. DLTs are evaluated and recorded during the first 2 cycles of treatment.
Initially, the decision to escalate to the next dose level is be based on the observation of DLT during Cycle 1. If no DLT is observed, escalation proceeds to the next cohort. If a DLT is observed in Cycle 2 in the study, the escalation strategy is evaluated moving forward. Escalation continues until the maximum administered dose (MAD), maximum tolerated dose (MTD) and recommended dose (RD) are determined.
On Days 1, 2 and 3 of each cycle, LB-100 was infused over 15 minutes.
LB-100 was administered daily on Days 1 through 3 of every 21 day cycle to patients at the following dose levels:
Enrollment in each dose cohort will proceed in the standard “3+3” schema where 3 patients are initially enrolled per cohort; Scheme 2. In each cohort, the first patient enrolled will complete Cycle 1 treatment and safety monitoring prior to the enrollment of the second and third patients; the second and third patients may be enrolled simultaneously. Dose limiting toxicities (DLTs) will be evaluated and recorded during the first 2 cycles of treatment. Initially, the decision to escalate to the next dose level will be based on the observation of DLT during Cycle 1. If no DLT is observed, escalation will proceed to the next cohort. Note: if a DLT is observed in Cycle 2 in the study, the escalation strategy will be evaluated moving forward. If, however, DLT is observed in 1 of the 3 patients, an additional 3 patients must be enrolled at that dose. In a cohort of 6, if one patient has DLT, then dose escalation may proceed; if 2 or more patients have DLT, then that dose will be considered the maximum administered dose (MAD) and dose escalation will cease. The MTD is defined as one dose level below the MAD. Once the MTD of single agent LB-100 is reached, 3 additional patients will be enrolled in an MTD confirmation cohort. At least 6 patients must be treated at the MTD to determine the safety of that dose as a basis for the starting dose of LB-100 in Part 2 of this study.
The NCI Common Terminology Criteria for Adverse Events (CTCAE) Version 4.0 will be used to grade toxicity.

beagle dogs = test: Non-GLP dose ranging toxicity study, IV every 4 days x4 doses; format: in vivo, dog
[8] = tested on: male and female Sprague Dawley rats; test: GLP repeat-dose toxicity study, daily IV slow bolus x5 days
Akt = settings: Lu et al. 2009; cited from earlier work

For `CN1CCN(C(=O)C2C(C(=O)O)[C@H]3CC[C@@H]2O3)CC1` (mixture of isomers) [LB-100, 3-(4methylpiperazine-carbonyl)-7-oxalobicyclo[2.2.1]heptane-2-carboxylic acid], the cytotoxicity [1] was “Dose-dependent cytotoxicity”, the “cytotoxicity to TNBC cells” value (TNBC cell lines) was “cytotoxic” and the water solubility ([2]; enantiomeric zwitterion) was “water soluble”. The stability of formulation ([2]; refrigerated temperatures) was “at least 8 hours”, the stability of formulation ([2]; −20° C.) was “stable for months” and the “racemization of separated enantiomers” value ([2]; in solution) was “racemize rapidly”. For the same molecule, the AUC(0-t) ([3]; female, females) was 691 ng·h/mL, the C0 ([3]; female, females) was 2350 ng/mL and the AUC(0-t) ([3]; male, males) was 596 ng·h/mL. The C0 ([3]; male, males) was 1800 ng/mL, the “cytotoxic effect of cisplatin” value [4] was “enhanced” and the “cytotoxic effect of doxorubicin” value [4] was “enhanced”. For the same molecule, the “cytotoxic effect of taxol” value [4] was “enhanced”, the “cytotoxic effect of temozolomide” value [4] was “enhanced” and the AUC(0-t) (in vivo; female) was 335 ng·h/mL. The AUC(0-t) (in vivo; male) was 267 ng·h/mL, the nephrosis severity (male Fischer rats; 0.75 mg/kg/day) was “mild” and the “no-observed-adverse-effect-level (NOAEL)” value (male Fischer rats; 0.5, 0.75 and 1.5 mg/kg/day x4 days) was “not established”. For the same molecule, the heart toxicity (male Fischer rats; 0.75 and 1.5 mg/kg/day groups) was “epicardial hyperplasia with inflammation primarily on the epicardium of the atria”, the MTD (male Fischer rats; IV daily for 4 days, converted dose) was “about 4.5 mg/m^2” and the unscheduled deaths (male Fischer rats; any treatment group) was “no unscheduled deaths”. The dose-limiting toxicities (male Fischer rats; rat, in vivo, iv) was “Kidney, heart, femoral bone, liver and urinary bladder toxicity”, the MTD at 4 days [5] was 0.75 mg/kg/day and the tolerability ([6]; 0.15 mg/kg/day) was “well tolerated”. For the same molecule, the “test article-related lethality, animals” value ([6]; 0.75 mg/kg/day group, before fourth dose) was 2 of 10, the “Highest Non-Severely Toxic Dose (HNSTD)” value ([6]; daily IV x5 days) was 0.15 mg/kg and the ECGs ([6]; dog, in vivo) was “within normal limits”. For the same molecule, the blood pressure ([6]; dog, in vivo) was “unaffected”, the “duration of stable disease” value (advanced solid tumors; Patient 10, pancreatic cancer, 0.83 mg/m^2) was 39 weeks and the “time remained stable since starting LB-100” value (advanced solid tumors; Patient 10, pancreatic cancer, interim (8 cycles)) was 6 months. For the same molecule, the “cycles on treatment with stable disease” value (advanced solid tumors; Patient 17, metastatic thymoma, DL5 1.75 mg/m^2) was 7 cycles and 8 cycles, the “cycles of stable disease” value (advanced solid tumors; breast, ovarian, carcinoid and testicular cancer patients) was 4-6 cycles and the adverse events ([7]; human) was “No adverse events attributable to LB-100”. For the same molecule, the dyspnea ([7]; human) was “grade 1”, the tolerability ([7]; human) was “without any symptoms attributable to LB-100” and the “vomiting, related to LB-100” value ([7]; human) was “grade 3”. The “adverse events attributed to a bleeding rectal mass” value ([7]; human, 1 cycle) was “grade 3 anemia and grade 2 weakness”, the “neuropathy, possibly related to LB-100” value ([7]; human, 4 cycles) was “Grade 1” and the adverse events [7] was “No new adverse events”. For the same molecule, the dose limiting toxicity [7] was “no dose limiting toxicity”, the “relation of pulmonary embolism to treatment” value [7] was “not related” and the “possible test article-related clinical observation” value (beagle dogs; 1.0 mg/kg, one female, study Day 13) was “intermittent tremors”. The survival (beagle dogs; 0.1-1.0 mg/kg) was “no LB-100-related effects on survival”, the “body weight gain and food consumption” value (beagle dogs; 0.5 and 1.0 mg/kg, females) was “lower body weight gains and food consumption” and the “no-observed-effect level (NOEL)” value (beagle dogs; IV every 4 days x4 doses) was 0.25 mg/kg. The signs of toxicity (beagle dogs; dog, in vivo, 1 mg/kg) was “almost no signs of toxicity”, the “epicardium and subepicardium of atria” value ([8]; 0.5, 0.75, 1.25 mg/kg/day males, 1.25 mg/kg/day females) was “Minimal to mild subacute inflammation” and the kidney finding ([8]; 0.75 and 1.25 mg/kg/day, males and females) was “adverse, test article-related nephrosis of the kidneys”. The “test article-related effects on urinalysis parameters” value ([8]; Day 5, reversible) was “observed in all treatment groups” and the “severely toxic dose in 10% of the animals (STD 10)” value ([8]; daily IV x5 days) was 0.75 mg/kg/day.
For `CCN1CCCC1CNC(=O)c1cc(S(=O)(=O)CC)c(NC)cc1OC` (stereo not drawn) [LB-102], the “phosphorylation of Akt” value (Akt) is given as “increased”.
